According to patent US20250122203A1, “ADENOSINE RECEPTOR ANTAGONISTS” (Crossignal Therapeutics, Inc., priority 2021, published 2025):

Columns and labels:
[1] = target: human adenosine A2a receptor (Homo sapiens, UniProt P29274); assay: Adenosine A2a Receptor Whole Cell Cyclic AMP Assay; conditions: HEK293 cells stably expressing human A2a; for A2a @ 100 μM Adenosine (cAMP IC50): in the presence of 100 μM adenosine; for A2a @ 1 μM Adenosine (cAMP IC50): in the presence of 1 μM adenosine
[2] = target: T1, human adenosine A2b receptor (Homo sapiens, UniProt P29275); assay: Adenosine A2b Receptor Whole Cell Cyclic AMP Assay; conditions: HEK293 cells transfected with human A2b; in the presence of 10 μM adenosine
T1 sequence (P29275 1-332): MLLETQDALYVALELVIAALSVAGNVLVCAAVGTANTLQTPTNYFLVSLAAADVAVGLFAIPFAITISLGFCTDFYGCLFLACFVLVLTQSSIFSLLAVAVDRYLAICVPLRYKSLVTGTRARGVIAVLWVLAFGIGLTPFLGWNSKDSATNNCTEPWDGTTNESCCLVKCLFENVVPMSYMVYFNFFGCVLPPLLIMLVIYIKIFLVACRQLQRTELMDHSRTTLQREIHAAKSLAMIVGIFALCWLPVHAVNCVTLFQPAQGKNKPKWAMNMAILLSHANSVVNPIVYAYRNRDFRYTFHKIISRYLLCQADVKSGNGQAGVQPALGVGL

human adenosine A2a receptor, sequence (P29274 whole entry): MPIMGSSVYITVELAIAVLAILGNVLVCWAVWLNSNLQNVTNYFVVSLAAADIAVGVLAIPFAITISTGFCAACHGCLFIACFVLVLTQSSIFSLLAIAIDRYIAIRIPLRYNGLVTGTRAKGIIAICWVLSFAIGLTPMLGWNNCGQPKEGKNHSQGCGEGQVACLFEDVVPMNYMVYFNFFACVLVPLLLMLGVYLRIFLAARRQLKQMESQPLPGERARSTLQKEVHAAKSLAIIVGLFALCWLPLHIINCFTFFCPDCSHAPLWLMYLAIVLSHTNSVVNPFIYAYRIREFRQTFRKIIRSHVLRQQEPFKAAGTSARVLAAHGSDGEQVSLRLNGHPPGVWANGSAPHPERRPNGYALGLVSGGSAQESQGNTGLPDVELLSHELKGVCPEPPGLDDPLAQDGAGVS

A2a @ 100 μM Adenosine (cAMP IC50) [1]	A2a @ 1 μM Adenosine (cAMP IC50) [1]	also measured	Compound
++ (partial)	–	–	Cc1ccnc2ccc(-c3c(-c4ccc(F)cc4)nc(N)c4nnnn34)cc12 [1-6, 6-(4-fluorophenyl)-5-(4-methylquinolin-6-yl)tetrazolo[1,5-a]pyrazin-8-amine]
+ (partial)	–	–	Nc1nc(-c2ccc(F)cc2)c(-c2ccc3ncoc3c2)n2nnnc12 [1-10, 5-(benzo[d]oxazol-6-yl)-6-(4-fluorophenyl)tetrazolo[1,5-a]pyrazin-8-amine]
++ (partial)	–	–	Nc1nc(-c2ccc(F)cc2)c(-c2ccc3ncc(Cl)n3c2)n2nnnc12 [1-23, 5-(3-chloroimidazo[1,2-a]pyridin-6-yl)-6-(4-fluorophenyl)tetrazolo[1,5-a]pyrazin-8-amine]
–	–	A2b @ 10 μM Adenosine (cAMP IC50) [2]: + (partial)	Cc1cc(-c2c(-c3ccc(F)cc3)nc(N)n3nnnc23)cc(C)n1 [1-28, 8-(2,6-dimethylpyridin-4-yl)-7-(4-fluorophenyl)tetrazolo[1,5-c]pyrimidin-5-amine]
–	+++ (partial)	–	Cc1ccnc2ccc(-c3c(-c4ccc(Cl)cc4)nc(N)c4nnnn34)cc12 [1-39, 6-(4-chlorophenyl)-5-(4-methylquinolin-6-yl)tetrazolo[1,5-a]pyrazin-8-amine]
–	+++ (partial)	–	Cc1ccnc2ccc(-c3c(-c4ccc(C(=O)N(C)C)cc4)nc(N)c4nnnn34)cc12 [1-40, 4-(8-amino-5-(4-methylquinolin-6-yl)tetrazolo[1,5-a]pyrazin-6-yl)-N,N-dimethylbenzamide]
–	+++ (partial)	–	Cc1ccnc2ccc(-c3c(-c4cccc(Cl)c4)nc(N)c4nnnn34)cc12 [1-50, 6-(3-chlorophenyl)-5-(4-methylquinolin-6-yl)tetrazolo[1,5-a]pyrazin-8-amine]
